We go through two compounds from US9199028B2, “Use of entrained neutrophils to treat metastatic and micrometastatic disease in at risk patients” (MEMORIAL SLOAN-KETTERING CANCER CENTER, priority 2010, dated 2015).

One test deals with 4T1 cells. Description: In vitro killing assay: TENs co-cultured with 4T1 cells in the presence of inhibitors or TGF-β. Type of test: cell-based, mouse. Particulars: TENs + 4T1 cells overnight; Apocynin 100 μM, Catalase 1,000 u/ml, Superoxide Dismutase 1,000 u/ml, Taurine 50 mM. An excerpt: Antibodies used for immunohistochemistry—MMP9, F4/80 and CCR2 (all from AbCam), Myeloperoxidase (Dako), Ly-6G and Cd11b (both from BD), and Cleaved Caspase 3 (Cell signalling). Antibodies used for western blotting—Actin (Sigma), CCL2 (AbCam) and CCL5 (R&D) p-SMAD2 (cell signalling). Antibodies used for FACS analysis FITC-Ly-6G, FITC-Cd11b, FITC-F4/80, FITC-Cd34 and FITC-c-Kit (all from BD) and VEGFR1-AP (R&D). Neutrophil Depletion Neutrophil depletion was achieved using daily IP injections of 12.5 μg Rat anti-Gr-1 antibody (BD) or Rat anti-Ly-6G antibody (BD) starting on day 3 post tumour engraftment. Starting on day 14, neutrophil depleting antibodies were administered twice daily. Control mice were injected with […] Rat isotype control (BD). Neutrophil depletion was monitored by manual blood differentials and FACS analysis. Flow Cytometry Peripheral blood was collected into EDTA-coated tubes, washed and resuspended in FACS buffer solution (PBS, 2% heat-inactivated FCS, 5 mM EDTA, and 0.02% sodium azide). The samples were blocked with […] and then incubated with fluorophore-conjugated antibodies. Erythrocytes were then lysed with FACS lysing solution (BD Biosciences) and the cell suspensions were analyzed on a FACSCalibur (BD Biosciences). Colony Formation Assay Female nude mice were orthotopically injected with 5×10^6 puromicin resistant 4T1 cells. On days 7 and 14 post tumour engraftment the mice were sacrificed and perfused with PBS. The lungs and livers were removed, washed with PBS and dissociated with Collagenase A (Roche). The single cell suspension was then plated onto puromicin containing media and selected for 14 day. Colonies were stained with Methylene-Blue and counted manually. Mouse Neutrophil Purification Whole blood was collected by cardiac puncture using heparinized (Sigma) syringe. The blood was diluted with 5 volumes of PBS containing 0.5% BSA and subjected to a discontinuous Histopaque (Sigma) gradient (1.077 and 1.119). Neutrophils were collected from the 1.077-1.119 interface, lymphocytes and monocytes collected from the plasma-1.077 interface. RBCs were eliminated by hypotonic lysis. The cells were washed twice with PBS-BSA and re-suspended in OptiMEM (Invitrogen) 0.5% FBS in a final concentration of 2×10^6 cells/ml. Neutrophil purity and viability were determined visually and were consistently >98%. Human Neutrophil Purification As part of a Memorial Sloan-Kettering Cancer Center institutionally approved protocol, blood samples (˜10 cc) were collected from healthy volunteers or from patients who were already having blood drawn for pre-surgical testing. Patients were consented accordingly as part of the approved protocol. […] Patients had either mastectomies or lumpectomies planned and had blood drawn prior to definitive surgical removal of their primary tumor or chemotherapy. Blood samples were transferred to the lab for analysis no more than 1 hour post-blood draw. Heparinzed blood (20 U/ml final) was mixed with an equal volume of Dextran 500 (3% in saline) and incubated 30 minutes at room temperature. The leukocyte-rich supernatant was layered on top of histopaque 1077 (Sigma) and centrifuged. Neutrophils, collected in the pellet fraction, were resuspended in 10 ml 0.2% NaCl for 30 seconds to remove contaminating erythrocytes. Isotonicity was restored by the addition of 10 ml 1.6% NaCl. Neutrophils were than washed three times in Hanks's balanced salt solution and resuspended in RPMI+FCS2%. In vitro Killing Assay Luciferase labelled cells (5,000/well) were plated on a 96-well, flat bottom white polystyrene tissue culture plate in OptiMEM 0.5% FBS (mouse neutrophils) or RPMI 2% FBS (human neutrophils). 4 hours later, purified neutrophils (100,000/well for mouse neutrophils and 5000 for human neutrophils) were added to the plated tumour cells and co-cultured overnight. […]

A further test concerns 4T1 tumour-bearing mice. Description: In vivo administration of Apocynin, spontaneous metastasis assay. On the set-up: species or system mouse. Particulars: Apocynin 2.4 g/liter in drinking water from 24 hours after orthotopic 4T1 injection, vs control. An excerpt: 4T1, B16-F10, and Lewis Lung Carcinoma (LLC) murine tumour cell lines as well as the human MCF7 and MDA-MB-231 mammary tumour cell lines were purchased from the ATCC. The human 4175 (LM2) cell line was described in Minn, et al., Nature 436:518-524 (2005), herein incorporated by reference). CCL2 and CCL5 knockdown 4T1 cells were generated by lentiviral transduction with CCL2 and CCL5 specific shRNAs from the SKI shRNA lentiviral collection. 4T1, MCF7 and 4175 were orthotopically injected into the mammary fat pad. B16-F10 and LLC cells were injected intradermally. Spontaneous Metastasis Assay 4T1 cells were transduced with pLVX based lentiviral particles encoding for firefly luciferase. Balb/C or nude female mice were orthotopically injected with 5×10^6 luciferase labelled cells. Metastatic progression was monitored using IVIS200 imaging system to measure lung specific luciferase activity starting on day 3 post tumour engraftment. Analysis of metastases size distribution and number was done histologically. Tissue Injury Female FVB mice were anesthetized and shaved at the wounding site. An area of skin (4 mm in diameter) area of skin was surgically removed from the dorsal region. […]
Mice were orthotopically injected with 5×10^6 luciferase labelled 4T1 cells. […] Formation of lung metastases was monitored using the IVIS-200 optical in vivo imaging system. […]

The conditions of test [1]: TGFbeta inhibitor, Tocris; cited from earlier work.

Entries after “also recorded” stand apart in the source; their conditions may differ.

The IC50 is the concentration that inhibits the measured activity by half.

For the compound `COc1cc(C(C)=O)ccc1O` [Apocynin], the “neutrophil (TEN) mediated tumour-cell killing in the presence of inhibitor” value in the test on 4T1 cells was “completely inhibits the neutrophil mediated tumour-cell killing”. The “spontaneous lung metastasis (lung specific luciferase activity)” value in the test on 4T1 tumour-bearing mice is “enhanced; also recorded: enhances metastasis”. `NC(=O)c1ccc(-c2nc(-c3ccc4c(c3)OCO4)c(-c3ccccn3)[nH]2)cc1` [SB431542]: in test [1], the IC50 is 94 nM.
